Measured values from publication PMC4687028 (Journal of medicinal chemistry, 2015).

Key:
[1] = biological target: T1, recombinant human aromatase (CYP19) (Homo sapiens, UniProt P11511); test: Inhibition of recombinant human aromatase; assay type: biochemical
T1 sequence (P11511 1-503): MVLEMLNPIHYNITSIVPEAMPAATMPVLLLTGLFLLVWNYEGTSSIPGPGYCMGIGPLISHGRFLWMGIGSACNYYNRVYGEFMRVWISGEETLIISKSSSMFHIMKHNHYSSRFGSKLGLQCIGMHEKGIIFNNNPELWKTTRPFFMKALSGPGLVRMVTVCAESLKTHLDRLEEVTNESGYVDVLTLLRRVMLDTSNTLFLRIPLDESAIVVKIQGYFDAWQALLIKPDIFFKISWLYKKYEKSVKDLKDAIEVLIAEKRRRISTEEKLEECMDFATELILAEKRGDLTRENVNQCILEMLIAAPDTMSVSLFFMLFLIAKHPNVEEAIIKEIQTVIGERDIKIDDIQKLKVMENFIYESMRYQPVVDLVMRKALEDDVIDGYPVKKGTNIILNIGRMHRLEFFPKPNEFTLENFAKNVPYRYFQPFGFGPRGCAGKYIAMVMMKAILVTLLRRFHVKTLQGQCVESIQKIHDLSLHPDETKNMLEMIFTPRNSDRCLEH

[2] = biological target: T2, Recombinant CYP2A6 (Homo sapiens, UniProt P11509); test: Inhibition of recombinant CYP2A6; assay type: biochemical
T2 sequence (P11509 1-494): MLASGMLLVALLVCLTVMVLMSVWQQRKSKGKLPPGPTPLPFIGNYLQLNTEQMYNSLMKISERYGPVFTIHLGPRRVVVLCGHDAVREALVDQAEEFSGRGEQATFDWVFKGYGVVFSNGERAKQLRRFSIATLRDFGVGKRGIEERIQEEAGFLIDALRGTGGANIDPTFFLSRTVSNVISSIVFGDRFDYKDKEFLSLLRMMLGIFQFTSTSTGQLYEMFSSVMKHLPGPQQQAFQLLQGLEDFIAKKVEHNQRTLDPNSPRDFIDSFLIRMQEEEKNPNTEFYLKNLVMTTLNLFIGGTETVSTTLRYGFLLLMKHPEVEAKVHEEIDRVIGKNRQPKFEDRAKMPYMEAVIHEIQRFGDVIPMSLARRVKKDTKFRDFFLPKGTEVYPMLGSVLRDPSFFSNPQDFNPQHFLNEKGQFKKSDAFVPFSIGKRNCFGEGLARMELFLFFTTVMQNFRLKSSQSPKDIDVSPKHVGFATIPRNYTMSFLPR

[3] = biological target: T3, recombinant human ER-α (Homo sapiens, UniProt P03372); test: ER-α competitor binding assay, fluorescence polarization, displacement of ES2; conditions: at the concentration of 100,000 nM
T3 sequence (P03372 1-595): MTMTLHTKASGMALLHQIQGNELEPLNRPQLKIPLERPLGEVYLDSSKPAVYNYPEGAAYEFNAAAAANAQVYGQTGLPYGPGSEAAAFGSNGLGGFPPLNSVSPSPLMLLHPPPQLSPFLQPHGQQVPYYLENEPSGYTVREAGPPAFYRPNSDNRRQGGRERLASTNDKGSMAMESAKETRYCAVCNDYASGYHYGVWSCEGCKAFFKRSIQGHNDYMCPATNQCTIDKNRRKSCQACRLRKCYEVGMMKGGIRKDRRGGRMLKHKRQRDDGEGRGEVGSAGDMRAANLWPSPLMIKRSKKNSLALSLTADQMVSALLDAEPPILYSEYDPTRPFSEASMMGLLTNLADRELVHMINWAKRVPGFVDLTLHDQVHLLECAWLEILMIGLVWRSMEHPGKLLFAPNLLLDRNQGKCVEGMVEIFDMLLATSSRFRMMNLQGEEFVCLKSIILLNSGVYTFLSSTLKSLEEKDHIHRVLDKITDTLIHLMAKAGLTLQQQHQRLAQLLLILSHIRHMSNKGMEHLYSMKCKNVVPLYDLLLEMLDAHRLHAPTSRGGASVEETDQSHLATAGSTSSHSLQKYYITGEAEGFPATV

[4] = biological target: Recombinant CYP2D6 (Homo sapiens, UniProt P10635); conditions: previously published; cited from earlier work
Recombinant CYP2D6, sequence (P10635 whole entry): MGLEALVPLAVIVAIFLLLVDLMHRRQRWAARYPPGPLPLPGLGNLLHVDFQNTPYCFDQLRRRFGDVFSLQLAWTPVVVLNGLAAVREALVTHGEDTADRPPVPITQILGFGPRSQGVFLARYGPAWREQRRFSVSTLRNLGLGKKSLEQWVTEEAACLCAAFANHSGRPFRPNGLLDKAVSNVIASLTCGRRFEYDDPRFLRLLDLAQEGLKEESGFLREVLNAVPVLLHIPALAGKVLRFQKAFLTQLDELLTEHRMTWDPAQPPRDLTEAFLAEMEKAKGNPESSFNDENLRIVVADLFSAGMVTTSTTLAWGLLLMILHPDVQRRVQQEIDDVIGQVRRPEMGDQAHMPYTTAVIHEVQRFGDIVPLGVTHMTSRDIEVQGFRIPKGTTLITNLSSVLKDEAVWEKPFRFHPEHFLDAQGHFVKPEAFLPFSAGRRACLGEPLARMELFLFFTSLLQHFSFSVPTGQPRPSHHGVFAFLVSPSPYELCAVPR

| SMILES | Percent ER competition, ER-α [3] [% competition] | further results |
| --- | --- | --- |
| CC/C(=C(/c1ccc(O)cc1)c1ccc(OCCN)cc1)c1ccc(O)cc1 [Compound 10, 4,4'-(1-(4-(2-Aminoethoxy)phenyl)but-1-ene-1,2-diyl)diphenol] |  | Potency against aromatase (CYP19) relative to norendoxifen ([1]; Ki 20.0 nM versus Ki […] nM): 4 fold; Selectivity toward CYP19 versus all other CYP P450 enzymes tested ([1]; other than CYP1A2, from Ki values): > 21 fold; IC50 [2]: 6.73 ± 0.66 µM |
| CC/C(=C(/c1ccccc1)c1ccc(OCCN)cc1)c1ccccc1 [Compound 18, 2-(4-(1,2-Diphenylbut-1-en-1-yl)phenoxy)ethan-1-amine] | 0 |  |
| CC(C)/C(=C(/c1ccc(O)cc1)c1ccc(OCCN)cc1)c1ccccc1 [Compound 29d, 4-(1-(4-(2-Aminoethoxy)phenyl)-3-methyl-2-phenylbut-1-enyl)phenol] | 54 |  |
| N#CC/C(=C(/c1ccc(O)cc1)c1ccc(OCCN)cc1)c1ccccc1 [Compound 40, 4-(4-(2-Aminoethoxy)phenyl)-4-(4-hydroxyphenyl)-3-phenylbut-3-enenitrile] | 48 |  |
| NCCOc1ccc(/C(=C(\Cn2ccnc2)c2ccccc2)c2ccc(O)cc2)cc1 [Compound 41, 4-(1-(4-(2-Aminoethoxy)phenyl)-3-(1H-imidazol-1-yl)-2-phenylprop-1-en-1-yl)phenol] | 59 |  |
| CC/C(=C(/c1ccc(O)cc1)c1ccc(OCCO)cc1)c1ccccc1 [Compound 48, 4-(1-(4-(2-Hydroxyethoxy)phenyl)-2-phenylbut-1-en-1-yl)phenol] | 62 |  |
| CC/C(=C(/c1ccc(O)cc1)c1ccc(OCC(=O)O)cc1)c1ccccc1 [Compound 49, 2-(4-(1-(4-Hydroxyphenyl)-2-phenylbut-1-en-1-yl)phenoxy)acetic Acid] | 55 |  |
| CC/C(=C(/c1ccc(O)cc1)c1ccc(OCCBr)cc1)c1ccccc1 [Compound 50, 4-(1-(4-(2-Bromoethoxy)phenyl)-2-phenylbut-1-en-1-yl)phenol] | 60 |  |
| CC/C(=C(/c1ccc(O)cc1)c1ccc(OCCCl)cc1)c1ccccc1 [Compound 55a, 4-(1-(4-(2-Chloroethoxy)phenyl)-2-phenylbut-1-en-1-yl)phenol] | 62 |  |
| CC/C(=C(/c1ccc(O)cc1)c1ccc(OCCN)cc1)c1ccccc1 [Norendoxifen] |  | Recombinant CYP2D6 IC50 (nM) [4]: No inhibition; Recombinant CYP2D6 Ki (nM) [4]: No inhibition |
